Patent US10752584B2 (EMORY UNIVERSITY, priority 2016, dated 2020)

Experiments:
Type in all cases: cell-based
[1] = Cellular toxicity assay in CEM cells; conditions: human, CEM lymphoblastoid cells, read-out: Cytotoxicity
Procedure: The toxicity of the compounds was assessed in Vero, human PBM, CEM (human lymphoblastoid), MT-2, and HepG2 cells, as described previously (see Schinazi R. F., Sommadossi J.-P., Saalmann V., Cannon D. L., Xie M.-Y., Hart G. C., Smith G. A. & Hahn E. F. Antimicrob. Agents Chemother. 1990, 34, 1061-67). Cycloheximide was included as positive cytotoxic control, and untreated cells exposed to solvent were included as negative controls. The cytotoxicity IC50 was obtained from the concentration-response curve using the median effective method described previously (see Chou T.-C. & Talalay P. Adv. Enzyme Regul. 1984, 22, 27-55; Belen'kii M. S. & Schinazi R. F. Antiviral Res. 1994, 25, 1-11).

[2] = Cellular toxicity assay in Vero cells; conditions: African green monkey, read-out: Cytotoxicity
In short: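 Toxicity assessed in Vero, human PBM, CEM, MT-2 and HepG2 cells, with cycloheximide as positive control and solvent-treated cells as negative control. Cytotoxicity IC50 derived from concentration-response curves by the median effective method.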

[3] = test system: mitochondrial DNA (COXII gene) in HepG2 cells; test: Mitochondrial toxicity assay in HepG2 cells: mitochondrial DNA
Excerpt: A real-time PCR assay to accurately quantify mitochondrial DNA content has been developed (see Stuyver L J, Lostia S, Adams M, Mathew J S, Pai B S, Grier J, Tharnish P M, Choi Y, Chong Y, Choo H, Chu C K, Otto M J, Schinazi R F. Antiviral activities and cellular toxicities of modified 2′,3′-dideoxy-2′,3′-didehydrocytidine analogs. Antimicrob. Agents Chemother. 2002; 46: 3854-60). This assay was used in all studies described in this application that determine the effect of compounds on mitochondrial DNA content. In this assay, low-passage-number HepG2 cells were seeded at 5,000 cells/well in collagen-coated 96-well plates. Test compounds were added to the medium to obtain final concentrations of 0 μM, 0.1 μM, 10 μM and 100 μM. On culture day 7, cellular nucleic acids were prepared by using commercially available columns (RNeasy 96 kit; Qiagen). […] The mitochondrial cytochrome c oxidase subunit II (COXII) gene and the β-actin or rRNA gene were amplified from 5 μl of the eluted nucleic acids using a multiplex Q-PCR protocol with suitable primers and probes for both target and reference amplifications. For COXII the following sense, probe and antisense primers were used, respectively: 5′-TGCCCGCCATCATCCTA-3′, 5′-tetrachloro-6-carboxyfluorescein-[…]-TAMRA-3′ and 5′-[…]-3′. For exon 3 of the β-actin gene (GenBank accession number E01094) the sense, probe, and antisense primers are 5′-GCGCGGCTACAGCTTCA-3′, 5′-6-[…]-3′ and 5′-[…]-3′, respectively. The primers and probes for the rRNA gene are commercially available from Applied Biosystems. Since equal amplification efficiencies are obtained for all genes, the comparative CT method was used to investigate potential inhibition of mitochondrial DNA synthesis. The comparative CT method uses arithmetic formulas in which the amount of target (COXII gene) is normalized to the amount of an endogenous reference (the β-actin or rRNA gene) and is relative to a calibrator (a control with no drug at day 7). The arithmetic formula for this approach is given by 2−ΔΔCT, where ΔΔCT is (CT for average target test sample CT for target control)−(CT for average reference test−CT for reference control) (see Johnson M R, K Wang, J B Smith, M J Heslin, R B Diasio. Quantitation of dihydropyrimidine dehydrogenase expression by real-time reverse transcription polymerase chain reaction. Anal. Biochem. 2000; 278:175-184). A decrease in mitochondrial DNA content in cells grown in the presence of drug indicated mitochondrial toxicity.
(§1) The effect of compounds 7 and 9 on the levels of mitochondrial and nuclear DNA, and lactic acid production was evaluated in HepG2 cells (14-day assay), and the data is tabulated below in Table 2: […]

HepG2 cells = test: Lactic acid production in HepG2 cells; conditions: 14-day assay
Procedure: To measure the effects of the compounds on lactic acid production, HepG2 cells from a stock culture were diluted and plated in 12-well culture plates at 2.5×10^4 cells per well. Various concentrations (0 μM, 0.1 μM, 1 μM, 10 μM and 100 μM) of compound were added, and the cultures were incubated at 37° C. in a humidified 5% CO2 atmosphere for 4 days. At day 4, the number of cells in each well was determined and the culture medium collected. The culture medium was then filtered, and the lactic acid content in the medium was determined using a colorimetric lactic acid assay (Sigma-Aldrich). Since lactic acid product can be considered a marker for impaired mitochondrial function, elevated levels of lactic acid production detected in cells grown in the presence of test compounds would indicate a drug-induced cytotoxic effect.
as §1

HBV e antigen (HBeAg) = test: HBeAg ELISA in HepAD38 cells (cccDNA-dependent marker); conditions: Hepatitis B virus, HePAD38, 336 h
Procedure: Production of secreted HBeAg is predominantly cccDNA-dependent in HepAD38 cells and therefore can serve as a surrogate marker for cccDNA (Ladner, S. K., Otto, M. J., Barker, C. S., Zaifert, K., Wang, G. H., Guo, J. T., Seeger, C., King, R. W. Antimicrob Agents Chemother 1997, 41, 1715-1720; Zhou T, Guo H, Guo J T, Cuconati A, Mehta A, Block T M. Antiviral Res. 2006; 72 (2): 116-24.). The effect on the levels of cccDNA formation was assessed using a cell-based assay that measures HBV e antigen (HBeAg) as a cccDNA-dependent marker in the HepAD38 system. HepAD38 cells were seeded at 50,000 cells/well in collagen-coated 96-well plates with DMEM/F12 medium (Life Technologies) supplemented with 10% heat-inactivated fetal bovine serum. Cells were treated with 0.3 μg/ml tetracycline as needed. Test compounds and controls were added to cells to a final concentration of 10 μM or in a dose response manner ranging from 0.001 to 10 μM. Medium and test compounds were replenished every 5 days in culture. Supernatants were harvested at day-14, clarified by centrifugation at 5000 rpm for 5 min, and stored at −70° C. until use. ELISA—Culture medium was diluted 1:15 in DMEM/F12 and the levels of HBeAg secreted in the culture medium were measured by using HBeAg ELISA kit (BioChain Institute Inc. Hayward, Calif.) according to the manufacturer's protocol. The concentration of compound that reduced levels of secreted HBeAg by 50% (EC50) was determined by linear regression.

[4] = test system: mitochondrial DNA (COXII gene) in HepG2 cells; test: Mitochondrial toxicity assay in HepG2 cells: mitochondrial DNA; conditions: for MtDNA (% of control): human, 14 day
[5] = Homo sapiens, HepG2, 336 h, read-out: % inhibition MtDNA

`C#CCNC(=O)C(=O)c1c(C)c(C(=O)Nc2ccc(F)c(F)c2)n(C)c1C` [Compound 7a, 4-[(Propargylamino)(oxo)acetyl]-N-(3,4-difluorophenyl)-1,3,5-trimethyl-1H-pyrrole-2-carboxamide] gave a CC50 [1] greater than 100 µM, a CC50 [2] greater than 90 µM and an inhibition at 10 µM [3, 5] of less than 1%. The IC50 ([3]; Homo sapiens, HepG2, 336 h, read-out: IC50 MtDNA) was greater than 50 µM, the “MtDNA (% of control)” value ([3]; human, 14 day, 10 μM) was 110 (100-121) % of control and the “Lactic acid production (% of control)” value (HepG2 cells; 10 μM) was 103 ± 32.0 % of control. The “Lactic acid production (% of control)” value (HepG2 cells; 25 μM) was 106 ± 19.5 % of control, the “Lactic acid production (% of control)” value (HepG2 cells; 50 μM) was 193 ± 12.6 % of control and the EC50 (HBV e antigen (HBeAg); read-out: Anti-HBeAg activity EC50) was 0.008 µM. It also gave an EC90 (HBV e antigen (HBeAg); read-out: Anti-HBeAg activity EC90) of 0.58 µM, an inhibition at 25 µM [4, 5] of less than 1% and an inhibition at 50 µM [4, 5] of 17.7%. The “MtDNA (% of control)” value ([4]; 25 μM) was 91.8 (80.2-105) % of control and the “MtDNA (% of control)” value ([4]; 50 μM) was 94.6 (73.8-121) % of control.
